The results in this text go back to US9051277B2, “Phenyl(oxy/thio)alkanol derivatives” (Bayer Intellectual Property GmbH, priority 2009, dated 2015).

In experiment [1] the test system is Fusarium proliferatum. The experiment is described as follows: Production of fumonisin FB1 by Fusarium proliferatum. In kind it is cell-based. The settings on record: 120 h, read-out: inhibition of fumonisin FB1 production.
Experiment [2] deals with Fusarium graminearum. The experiment is described as follows: microbe, parasite or virus in culture. In kind it is cell-based. The settings on record: 168 h, read-out: inhibition of DON/AcDON production.
Experiment [3] has as its system Pyrenophora teres. The experiment is described as follows: Pyrenophora teres test (barley)/protective. As to conditions: protective, evaluation 8 days after inoculation. In kind it is in vivo. The protocol: [table] To produce a suitable preparation of active compound, 1 part by weight of active compound is mixed with the stated amounts of solvent and emulsifier, and the concentrate is diluted with water to the desired concentration. To test for protective activity, young plants are sprayed with the preparation of active compound at the stated application rate. After the spray coating has dried on, the plants are sprayed with a spore suspension of Pyrenophora teres. The plants remain in an incubation cabin at 20° C. and a relative atmospheric humidity of 100% for 48 hours.

For experiment [4], the system named is Alternaria solani. The experiment is described as follows: Alternaria test (tomato)/protective. The settings on record: protective, 100 ppm, evaluation 3 days after inoculation. Type of experiment: in vivo. The protocol: [table] To produce a suitable preparation of active compound, 1 part by weight of active compound is mixed with the stated amounts of solvent and emulsifier, and the concentrate is diluted with water to the desired concentration. To test for protective activity, young plants are sprayed with the preparation of active compound at the stated application rate. After the spray coating has dried on, the plants are inoculated with an aqueous spore suspension of Alternaria solani. The plants are then placed in an incubation cabin at about 20° C. and 100% relative atmospheric humidity.

Experiment [5] concerns Setaria viridis (green foxtail). Nature of the experiment: Phytoregulatory post-emergence action, SETVI. Type of experiment: in vivo. As to conditions: 80 g of a.i./ha, visual rating after about 3 weeks. How it is done:
(§1) Seeds of monocotyledonous and dicotyledonous crop plants are placed in sandy loam in wood-fibre pots, covered with soil and cultivated in a greenhouse under good growth conditions. 2 to 3 weeks after sowing, the test plants are treated at the one-leaf stage. The test compounds, formulated as wettable powders (WP), are, with a water application rate of 600 l/ha (converted), with 0.2% of wetting agent added, sprayed at various dosages onto the green parts of the plants. After the test plants have been kept in the greenhouse under optimum growth conditions for about 3 weeks, the activity of the preparations is rated visually in comparison to untreated controls (phytoregulatory activity in percent: 100% activity=maximum inhibition of plant growth, 0% activity=plant growth like that of an untreated control.)

Experiment [6] relates to Brassica napus (rape). The experiment is described as follows: Phytoregulatory post-emergence action, BRSNW. Type of experiment: in vivo. As to conditions: 80 g of a.i./ha, visual rating after about 3 weeks. The protocol: as §1
Experiment [7] relates to Brassica napus (rape). Nature of the experiment: Phytoregulatory pre-emergence action, BRSNW. In kind it is in vivo. As to conditions: 80 g of a.i./ha, visual assessment after about 3 weeks. The source says:
(§2) Seeds of monocotyledonous or dicotyledonous crop plants are placed in wood-fibre pots in sandy loam and covered with soil. The test compounds, formulated in the form of wettable powders (WP), are then, as an aqueous suspension with a water application rate of 600 l/ha (converted), with 0.2% of wetting agent added, applied at various dosages to the surface of the covering soil. After the treatment, the pots are placed in a greenhouse and kept under good growth conditions for the test plants. The visual assessment of the suppression of growth in the test plants is carried out after a trial period of about 3 weeks by comparison with untreated controls (phytoregulatory activity in percent: 100% activity=maximum inhibition of plant growth, 0% activity=plant growth like that of an untreated control.)

In experiment [8] the test system is Oryza sativa (rice). The experiment is described as follows: Phytoregulatory pre-emergence action, ORYSA. Type of experiment: in vivo. As to conditions: 80 g of a.i./ha, visual assessment after about 3 weeks.
Text: as §2

Experiment [9] deals with Triticum aestivum (common wheat). The experiment is described as follows: Phytoregulatory post-emergence action, TRZAS. In kind it is in vivo. The settings on record: 80 g of a.i./ha, visual rating after about 3 weeks. The protocol:
as §1

For experiment [10], the system named is Aspergillus parasiticus. The experiment is described as follows: microbe, parasite or virus in culture. In kind it is cell-based. The settings on record: 168 h, read-out: inhibition of aflatoxin production.

In the case of `CC(C)(C)C(O)(COc1ccc(I)cc1)Cn1cncn1` (stereo not shown) [Compound 1], the inhibition at 50 µM in experiment [1] and in experiment [2] was > 80% throughout. Besides, the Efficacy in % in experiment [3] (application rate 1000 ppm) was determined as 86%; in experiment [4], 94%.
Turning to `CC(C)(C)C(O)(CSc1ccc(I)cc1)Cn1cncn1` (stereo not shown) [Compound 3], the inhibition at 50 µM in experiment [1] and in experiment [2] was > 80% each time.
In the case of `CC(C)(C)C(O)(COc1ccc(Br)cc1)c1cncnc1` (stereo not shown) [Compound 11], the “Inhibition of the growth of useful or harmful plants in % SETVI” value in [5] came out at 70%. The entries for the “Inhibition of the growth of useful or harmful plants in % BRSNW” value in experiment [6] and in [7] were 60% and 80%, respectively. The inhibition at 50 µM in [1], in experiment [2] and in experiment [10] was > 80% throughout. Besides, the Efficacy in % in experiment [3] (application rate 500 ppm) is 100%; in experiment [4] it was 99%. The “Inhibition of the growth of useful or harmful plants in % ORYSA” value in experiment [8] came out at 60%. The “Inhibition of the growth of useful or harmful plants in % TRZAS” value in experiment [9] is given as 70%.
On to `CC(C)(C)C(O)(CSc1ccc(Br)cc1)c1cncnc1` (stereo not shown) [Compound 13], for which the inhibition at 50 µM in experiment [1] is > 80%.
`CC(C)C(O)(COc1ccc(Br)cc1)c1cncnc1` (stereo not shown) [Compound 21]: the inhibition at 50 µM in experiment [1] and in [2] was > 80% in each case.
Regarding `CC(C)(C)C(O)(COc1ccc(Cl)cc1)c1cncnc1` (stereo not shown) [EP-A 0 028 755, Example 1, reference compound], the “Inhibition of the growth of useful or harmful plants in % SETVI” value in experiment [5] was determined as 50%. Besides, the “Inhibition of the growth of useful or harmful plants in % BRSNW” value in experiment [6] is reported as 60%; in experiment [7], 70%. Further, the figures for the Efficacy in % in [3] (application rate 500 ppm) and in experiment [4] were 93% and 75%, respectively. Moreover, the “Inhibition of the growth of useful or harmful plants in % ORYSA” value in [8] was 40%. Further, the “Inhibition of the growth of useful or harmful plants in % TRZAS” value in [9] is listed as 50%.
`CC(C)(C)C(O)(COc1ccc(Cl)cc1)Cn1cncn1` (stereo not shown) [EP-A 0 040 345, Example I-1, reference compound]: the values for the Efficacy in % in [3] (application rate 1000 ppm) and in experiment [4] were 57% and 45%, respectively.
